Data reported in patent US20120128580A1, “PRESELECTION OF SUBJECTS FOR THERAPEUTIC TREATMENT WITH ELESCLOMOL BASED ON HYPOXIC STATUS” (SYNTA PHARMACEUTICALS CORP., priority 2010, published 2012).

Tests used:
[1] = test system: relapsed or refractory acute myeloid leukemia (AML); test: Trial of elesclomol sodium in relapsed or refractory AML with low LDH; type: in vivo, human; conditions: baseline serum LDH ≤0.8 ULN, elesclomol sodium once-weekly, starting dose 200 mg/m^2
Experimental: Subjects are identified as having one of relapsed or refractory acute myeloid leukemia (AML). A subject is selected as being candidate for treatment with elesclomol based on appropriate inclusion or exclusion criteria. Routine assessments are made prior to treatment to characterize the disease state of the subject including, but not limited to, imaging studies, hematological studies, and physical examination. Additionally, coded serum sample from the subject is tested to determine the LDH level.
This trial is expected to be sufficiently powered with the enrollment of 36 patients with relapsed or refractory AML and total baseline serum LDH level less-than or equal to 0.8 upper limit of normal (ULN). Patients are treated with elesclomol sodium on a once-weekly schedule at a starting dose of 200 mg/m^2, with dose escalation planned based on safety and tolerability. The primary endpoints are to characterize the safety and tolerability of elesclomol sodium and to determine the pharmacokinetics of elesclomol and its metabolites in this patient population. Secondary endpoints include assessing the activity of elesclomol as a monotherapy in the treatment of AML.

[2] = test system: non-small cell lung carcinoma (NSCLC); test: Phase II study, elesclomol with paclitaxel and carboplatin versus paclitaxel and carboplatin alone; type: in vivo, human; conditions: previously untreated NSCLC Stage IIIB or IV, i.v. every three weeks for six cycles
Experimental: For example, a Phase II study was performed to test elesclomol in combination with paclitaxel and carboplatin, as compared to paclitaxel and carboplatin alone, in 86 subjects with previously untreated non-small cell lung carcinoma (NSCLC) and non-resectable, locally advanced, or metastatic disease (Stage IIIB or IV) were randomized 1:1 into treatment groups for treatment with carboplatnin plus elesclomol (CP+E) or carboplatnin alone (CP). Subjects were dosed intravenously with 200 mg/m^2 of paclitaxel and AUC=6 of carboplatnin either with or without 266 mg/m^2 of elesclomol every three weeks for six cycles, likely resulting in complete clearance of elesclomol between doses.

[3] = Half-life of elesclomol in humans; type: in vivo; conditions: administered alone or with other chemotherapeutic agents
From the text: Elesclomol has been tested or has been approved for testing in clinical trials for treatment of metastatic melanoma, prostate cancer, solid tumors, recurrent or persistent ovarian epithelial cancer, fallopian tube cancer, and primary peritoneal cancer. The half-life of elesclomol in humans has been determined to be about an hour when administered alone or with other chemotherapeutic agents (e.g., with paxitaxel or carboplatinin).

cancer = test: Treatment outcomes by level of hypoxia in historical samples; type: in vivo, human
Experimental: An analysis using samples collected from subjects during treatment is performed to determine the efficacy of elesclomol for the treatment of cancer based on the level of hypoxia of the tumor based on markers assessed prior to and/or during the treatment of the subjects. […] The samples are analyzed for the level of hypoxia based on the amount or activity of a marker present. […] Various portions of the tumor tissue can also be analyzed when sufficient material is available, e.g., adjacent to the necrotic core, in the center of the tumor, adjacent to or including tumor vasculature, adjacent to normal tissue, etc. One or more markers of hypoxia are measured in each of the subjects, e.g., at least one isoform or subunit of lactate dehydrogenase (LDH) or hypoxia inducible factor (HIF); at least one pro-angiogenic form of vascular endothelial growth factor (VEGF), phosphorylated VEGF receptor (pKDR) 1, 2, or 3, neurolipin 1 (NRP-1), pyruvate dehydrokinase (PDH-K), and ornithine decarboxylase (ODC). […]

CN(NC(=O)CC(=O)NN(C)C(=S)c1ccccc1)C(=S)c1ccccc1 [Elesclomol, N-malonyl-bis(N′-methyl-N′-thiobenzoylhydrazide)]
response of subjects with low levels of hypoxia versus historical control populations [1]: respond better
Median Progression Free Survival ([2]; High LDH): 2.8 months
Median Progression Free Survival ([2]; Low LDH): 4.6 months
half-life [3]: about an hour
response of subjects with a low level of hypoxia compared to a high level of hypoxia (cancer): better response
